Laboratory results taken from US10577382B2, “Fused heterocyclic compound” (TAKEDA PHARMACEUTICAL COMPANY LIMITED, priority 2016, dated 2020).

Tests used:
[1] = system: HCT116 cells; assay: Growth inhibitory activity using HCT116 cells (Cell Titer-Glo); type: cell-based, human; conditions: Homo sapiens, HCT-116, 72 h, compound 1 μM, 3 days, read-out: Cell growth inhibition ratio at compound concentration of 1 μM
Experimental: HCT 116 cells (ATCC) were seeded in a 384-well plate at a density of 6×10^2 cells/well, and cultured overnight in a cell culture medium McCoy's 5A (Thermo Fisher Scientific) containing 10% FBS (fetal bovine serum) and 1% penicillin/streptomycin. The dissolved test compound was added in the cell medium, and the cell medium was left standing in a CO2 incubator (37° C.) for 3 days. A Cell Titer-Glo solution (Promega Corporation) was added, the mixture was stirred at room temperature for 10 minutes, and the emission value was measured by Envision (PerkinElmer). The inhibition ratio (%) of HCT116 cell growth by the test compound was calculated in accordance with the following expression. Inhibition ratio (%)=(1−(count of test compound−blank)÷(control−blank))×100
The count of the HCT116 cell suspension without addition of the compound was described as a control, and the count without addition of the compound and addition of HCT116 cells was described as a blank. The concentration at which the inhibition ratio was 50% was defined as an IC50 value.

[2] = system: SK-MEL-28-MYC cells; assay: Growth inhibitory action on MYC-induced SK-MEL-28-MYC cells (CellTiter-Glo); type: cell-based, human; conditions: 125 nM, 3 days
Description: (§1) Human MYC cDNA was inserted downstream of the TRE of a lentiviral vector (modified pTRIPZ: GE Healthcare) having a tetracycline responsive sequence (TRE) in the promoter region. The produced virus was infected with human malignant melanoma cells SK-MEL-28 (purchased from ATCC) to establish SK-MEL-28 cells (SK-MEL-28-MYC) inducing expression of MYC in the presence of doxycycline (Takara Bio Inc.) which is a tetracycline derivative. SK-MEL-28 cells (SK-MEL-28-Control) having an empty vector with only modified pTRIPZ were also established. 20 μL/well of 2.5 μg/mL doxycycline-containing medium was added to a 96-well plate, and 80 μl/well (1,000 cells/well) of a cell suspension was added, and cultured at 37° C. for 2 days in a 5% CO2 gas incubator. Thereafter, 100 μl of a 250 nM test compound solution was added (final concentration: 125 nM), and the mixture was further cultured for 3 days. 50 µl/well of a CellTiter-Glo™ Luminescent Cell Viability Assay reagent (Promega Corporation) was added to a 96-well plate, the amount of luminescence was measured by a luminometer, and the amount of remaining ATP was determined as a cell amount. The inhibition ratio (%) of cell growth by the test compound was calculated in accordance with the following expression. Inhibition ratio (%)=(1−(amount of luminescence of test compound)÷(amount of luminescence of control group))×100

[3] = target: T1, phosphorylated CLK2 protein (Ser98) (Homo sapiens, UniProt P49760); assay: In vitro CLK2 phosphorylation inhibitory action in HCT116 cells (western blot); type: cell-based; conditions: 300 nM, 16 hours, relative to control group
T1 construct: endogenous in cells; host or cells: HCT116 (ATCC)
T1 sequence (P49760 whole entry): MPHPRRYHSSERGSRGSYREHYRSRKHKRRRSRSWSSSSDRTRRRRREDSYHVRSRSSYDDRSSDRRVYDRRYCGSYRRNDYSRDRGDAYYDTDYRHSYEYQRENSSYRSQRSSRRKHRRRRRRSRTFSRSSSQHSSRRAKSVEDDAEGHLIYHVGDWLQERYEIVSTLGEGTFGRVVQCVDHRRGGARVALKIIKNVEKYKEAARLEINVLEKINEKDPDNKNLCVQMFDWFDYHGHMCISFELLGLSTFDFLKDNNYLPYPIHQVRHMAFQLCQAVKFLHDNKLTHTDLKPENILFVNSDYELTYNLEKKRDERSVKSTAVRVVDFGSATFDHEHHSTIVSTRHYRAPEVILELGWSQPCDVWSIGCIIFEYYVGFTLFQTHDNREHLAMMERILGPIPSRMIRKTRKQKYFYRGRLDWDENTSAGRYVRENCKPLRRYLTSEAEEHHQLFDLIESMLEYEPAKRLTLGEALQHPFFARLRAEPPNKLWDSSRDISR
Experimental: (§2) 1000 μl (8,0000 cells/well) of a cell suspension of human colon adenocarcinoma cells HCT116 (purchased from ATCC) was seeded in a 12-well plate, and cultured at 37° C. for 2 days in a 5% CO2 gas incubator. The test compound solution was added to a final concentration of 300 nM, and the mixture was cultured for 16 hours. The plate was washed with PBS, a protein extract (10% glycerol, 1% sodium dodecyl sulfate, 62.5 mM Tris-HCl (pH: 7.5)) was then added to dissolve the cells, and the solution was treated at 95° C. for 5 minutes. Thereafter, the amount of protein was determined using BCA Protein Assay Kit (Thermo Fisher Scientific).
(§3) The amount of the protein in each sample was adjusted, SDS-PAGE was then performed, and the protein was transferred to a PVDF membrane using an iBlot (registered trademark) gel transfer system (Invitrogen). […] The membrane was washed in the same procedure as described above, a phosphorylated CLK2 protein, a MDM4 protein, a p53 protein and a p21 protein each labeled with an antibody were then made chemiluminescent using ImmunoStar ZETA (Wako Pure Chemical Industries, Ltd.), and luminescence was detected with LAS-3000 Image Analyzer (Fujifilm Corporation). The luminescence intensity was determined using Multi Gauge Ver. 3.1 (Fujifilm Corporation), and quantified. […]

[4] = system: MDM4 protein; assay: MDM4 protein amount in HCT116 cells (western blot); type: cell-based, human; conditions: 300 nM, 16 hours, relative to control group
Experimental: as §2, §3

[5] = system: p53 protein; assay: p53 induction activity in HCT116 cells (western blot); type: cell-based, human; conditions: 300 nM, 16 hours, relative to control group
Experimental: as §2, §3

[6] = system: p21 protein; assay: p21 induction activity in HCT116 cells (western blot); type: cell-based, human; conditions: 300 nM, 16 hours, relative to control group
Experimental: as §2, §3

[7] = system: SK-MEL-28-Control cells; assay: Growth inhibitory action on SK-MEL-28-Control cells (CellTiter-Glo); type: cell-based, human; conditions: 125 nM, 3 days
Description: as §1

Residual ratio (phosphorylated CLK2) [3]: 71.4%
Structure (SMILES): COc1ncnn2ccc(-c3cnc4nc(C)n(Cc5nnc([C@@H](C)F)o5)c4c3)c12 [Example 286, 1-((5-((1R)-1-fluoroethyl)-1,3,4-oxadiazol-2-yl)methyl)-6-(4-methoxypyrrolo[2,1-f][1,2,4]triazin-5-yl)-2-methyl-1H-imidazo[4,5-b]pyridine]
inhibition at 1 µM [1]: 95% | Inhibition ratio (%) of cell growth, Doxycycline (+) ([2]; Doxycycline (+), MYC induced): 69.3% | Inhibition ratio (%) of cell growth, Doxycycline (−) ([2]; Doxycycline (−)): 24.7% | Residual ratio (MDM4) [4]: 43.6% | Increase ratio (p53) [5]: 620.7% | Increase ratio (p21) [6]: 556.4% | Inhibition ratio (%) of cell growth, Doxycycline (+) ([7]; Doxycycline (+)): 35.7% | Inhibition ratio (%) of cell growth, Doxycycline (−) ([7]; Doxycycline (−)): 34.4%
